Legend:
AMPA receptor [1] = experiment: Rat hippocampal slice assay: field EPSP amplitude in CA1; type: cell-based
Description: (§1) In another test, excitatory responses (field EPSPs) were measured in hippocampal slices, which were maintained in a recording chamber continuously perfused with artificial cerebrospinal fluid (ACSF). During a 15-30 minute interval, the perfusion medium was switched to one containing various concentrations of the test compounds. Responses collected immediately before and at the end of drug perfusion were superimposed in order to calculate the percent increase in EPSP amplitude.
To obtain data for the activity of invention compounds on synaptic responses, a bipolar nichrome stimulating electrode was positioned in the dendritic layer (stratum radiatum) of the hippocampal subfield CA1 close to the border of subfield CA3. Current pulses (0.1 msec) through the stimulating electrode activate a population of the Schaffer-commissural (SC) fibers, which arise from neurons in the subdivision CA3 and terminate in synapses on the dendrites of CA1 neurons. Activation of these synapses causes them to release the transmitter glutamate. Glutamate binds to post-synaptic AMPA receptors, which then transiently open an associated ion channel and permit a sodium current to enter the postsynaptic cell. This current results in a voltage in the extracellular space (the field EPSP), which is recorded by a high impedance recording electrode positioned in the middle of the stratum radiatum of CA1.
The intensity of the stimulation current was adjusted to produce half-maximal EPSPs (typically about 1.5-2.0 mV). Paired stimulation pulses were given every 40 sec with an interpulse interval of 200 msec, as described further in Example 30.
as §1, with “Hippocampal slices” for “In another test, excitatory responses (field EPSPs) were measured in hippocampal slices, which”, “During” for “During a”, “intervals,” for “interval,”
To conduct these tests, the hippocampus was removed from anesthetized, 2 month old Sprague-Dawley rats and in vitro slices (400 μm thick) were prepared and maintained in an interface chamber at 35° C. using conventional techniques [see, for example, Dunwiddie and Lynch, J. Physiol. 276: 353-367 (1978)]. The chamber was constantly perfused at 0.5 mL/min with ACSF containing (in mM): NaCl 124, KCl 3, KH2PO4 1.25, MgSO4 2.5, CaCl2 3.4, NaHCO3 26, glucose 10 and L-ascorbate 2. A bipolar nichrome stimulating electrode was positioned in the dendritic layer (stratum radiatum) of the hippocampal subfield CA1 close to the border of subfield CA3.
Current pulses (0.1 msec) through the stimulating electrode activate a population of the Schaffer-commissural (SC) fibers, which arise from neurons in the subdivision CA3 and terminate in synapses on the dendrites of CA1 neurons. Activation of these synapses causes them to release the transmitter glutamate. Glutamate binds to the post-synaptic AMPA receptors, which then transiently open an associated ion channel and permit a sodium current to enter the postsynaptic cell. This current results in a voltage in the extracellular space (the field EPSP) which is recorded by a high impedance recording electrode positioned in the middle of the stratum radiatum of CA1. The intensity of the stimulation current was adjusted to produce half-maximal EPSPs (typically about 1.5-2.0 mV). Paired stimulation pulses were given every 40 s with an interpulse interval of 200 msec (see below). The field EPSPs of the second response were digitized and analyzed to determine amplitude. If the responses were stable for 15-30 min (baseline), test compounds were added to the perfusion lines for a period of about 15 min. The perfusion was then changed back to regular ACSF. […]

AMPA receptor [2] = experiment: In vivo electrophysiology: field EPSP in dentate gyrus of anesthetized animals; design: species or system rat
Description: Animals are maintained under anesthesia by phenobarbital administered using a Hamilton syringe pump. Stimulating and recording electrodes are inserted into the perforant path and dentate gyrus of the hippocampus, respectively. Once electrodes are implanted, a stable baseline of evoked responses are elicited using single monophasic pulses (100 μs pulse duration) delivered at 3/min to the stimulating electrode. Field EPSPs are monitored until a stable baseline is achieved (about 20-30 min), after which a solution of test compound in HPCD is injected intraperitoneally and evoked field potentials are recorded. Evoked potentials are recorded for approximately 2 h following drug administration or until the amplitude of the field EPSP returns to baseline. In the latter instance, it is common that an iv administration is also carried out with an appropriate dose of the same test compound.

AMPA receptor [3] = experiment: In vitro patch clamp electrophysiology assay: glutamate-induced whole-cell current in cultured cortical neurons; type: cell-based; conditions: rat cortical neurons, 500 μM glutamate
Description: Cortical cells were prepared from day 18-19 embryonic Sprague-Dawley rats and recorded after 3 days in culture. The extracellular solution (ECS) contained (in mM): NaCl (145), KCl (5.4), HEPES (10), MgCl2 (0.8), CaCl2 (1.8), glucose (10), sucrose (30); pH. 7.4. In order to block the voltage-gated sodium currents, 40 nM TTX was added to the recording solution. The intracellular solution contained (in mM): K-gluconate (140), HEPES (20), EGTA (1.1), phosphocreatine (5), MgATP (3), GTP (0.3), MgCl2 (5), and CaCl2 (0.1); pH: 7.2. All test compound and glutamate solutions were made-up in the extracellular solution.
The whole-cell current was measured with patch-clamp amplifier (Axopatch 200B), filtered at 2 kHz, digitized at 5 kHz and recorded on a PC with pClamp 8. The cells were voltage-clamped at −80 mV. Solutions were applied by DAD-12 system. A baseline response for each cell was recorded using a 1 s pulse of 500 μM glutamate dissolved in ECS. Responses to test compound were then determined by application of a 10 s pulse of test compound followed by a 1 s pulse of the same concentration of test compound plus 500 μM glutamate and then 10 s of saline. This pulse sequence was repeated until a stable reading was obtained, or until sufficient data points were measured to allow extrapolation to a calculated maximum change.
The mean value of plateau current between 600 ms to 900 ms after application of glutamate or test compound plus glutamate was calculated and used as the parameter to measure the drug effect. The plateau responses in the presence of varying concentrations of test compound were divided by the baseline response in order to calculate the percentage increase. Compounds are deemed active in this test if, at a test concentration of 3 μM or less, they produce a greater than 100% increase in the value of the steady-state current measured due to application of glutamate alone. The concentration at which the glutamate induced current is increased by 100% is commonly referred to as the EC2x value.

| melting point [°C] | SMILES | further results |
| --- | --- | --- |
| 195 to 199 | C[C@H](Cn1cncn1)n1nnc2cc3c(=O)n(C4CC4)nnc3cc2c1=O | – |
| 178 to 180 | CC(Cn1cccn1)n1nnc2cc3c(=O)n(C4CC4)nnc3cc2c1=O (stereo not shown) | – |
| 223 to 226 | CC(Cn1ncnn1)n1nnc2cc3c(=O)n(C(C)Cn4ncnn4)nnc3cc2c1=O (stereo not shown) | – |
| 204 to 206 | CC(Cn1cnnn1)n1nnc2cc3c(=O)n(C(C)Cn4ncnn4)nnc3cc2c1=O (stereo not shown) | – |
| 245 to 246 | CC(Cn1cnnn1)n1cnc2cc3c(=O)n(C4CC4)nnc3cc2c1=O (stereo not shown) | – |
| 160 to 161 | CCC(Cn1ncnn1)n1cnc2cc3c(=O)n(C4CC4)nnc3cc2c1=O (stereo not shown) | – |
| 213 to 214 | CCC(Cn1cnnn1)n1cnc2cc3c(=O)n(C4CC4)nnc3cc2c1=O (stereo not shown) | – |
| 129 to 130 | CCC(Cn1nccn1)n1cnc2cc3c(=O)n(C4CC4)nnc3cc2c1=O (stereo not shown) | – |
| 215 to 217 | CCC(Cn1ccnn1)n1cnc2cc3c(=O)n(C4CC4)nnc3cc2c1=O (stereo not shown) | – |
| 222 to 223 | C#CCn1nnc2cc3c(=O)n(C(C)Cn4ncnn4)cnc3cc2c1=O (stereo not shown) | – |
| 218 to 219 | C#CCn1nnc2cc3c(=O)n(C(C)Cn4cnnn4)cnc3cc2c1=O (stereo not shown) | – |
| 198 to 200 | CC[C@H](Cn1cnnn1)n1cnc2cc3c(=O)n([C@H](C)Cn4ncnn4)nnc3cc2c1=O | – |
| 140 to 141 | CC[C@H](Cn1nnc(C)n1)n1cnc2cc3c(=O)n([C@H](C)Cn4ncnn4)nnc3cc2c1=O | – |
| 238 to 240 | CC[C@H](Cn1nnnc1C)n1cnc2cc3c(=O)n([C@H](C)Cn4ncnn4)nnc3cc2c1=O | – |
| 80 to 81 | CC[C@H](Cn1cnnn1)n1cnc2cc3c(=O)n([C@H](CC)Cn4cnnn4)nnc3cc2c1=O | – |
| 231 to 232 | C[C@H](Cn1cccn1)n1cnc2cc3c(=O)n([C@H](C)Cn4cc(Cl)cn4)cnc3cc2c1=O | – |
| 160 to 161 | C[C@H](Cn1cnnn1)n1nnc2cc3c(=O)n([C@H](C)Cn4ncnn4)nnc3cc2c1=O | – |
| – | C[C@H](Cn1ncnn1)n1nnc2cc3c(=O)n(C4CC4)nnc3cc2c1=O [Example 1, 3-Cyclopropyl-8-[(1R)-1-methyl-2-(2H-tetrazol-2-yl)ethyl]-3,8-dihydro[1,2,3]triazino[4,5-g][1,2,3]-benzotriazine-4,9-dione] | % increase in the amplitude of the field EPSP in the CA1 region of rat hippocampal slice (AMPA receptor [1]; @ 3 μM): 69% @ 3 μM; % increase in the amplitude of the field EPSP in rat dentate gyrus (AMPA receptor [2]; @ 5 mpk i.p.): 37%^3; In vitro Patch Clamp Electrophysiology EC2x (concentration at which the glutamate induced current is increased by 100%) (AMPA receptor [3]): 0.28 μM |
| – | C[C@H](Cn1ncnn1)n1nnc2cc3c(=O)n(C)nnc3cc2c1=O [Example 4, 3-Methyl-8-[(2R)-1-(2H-tetrazol-2-yl)propan-2-yl]-3,8-dihydrobenzo[1,2-d:4,5-d′]bis[1,2,3]triazine-4,9-dione] | % increase in the amplitude of the field EPSP in the CA1 region of rat hippocampal slice (AMPA receptor [1]; @ 3 μM): 18% @ 3 μM; % increase in the amplitude of the field EPSP in rat dentate gyrus (AMPA receptor [2]; @ 5 mpk i.p.): 46%^3; In vitro Patch Clamp Electrophysiology EC2x (concentration at which the glutamate induced current is increased by 100%) (AMPA receptor [3]): 0.28 μM |
| – | COCCn1nnc2cc3c(=O)n([C@H](C)Cn4ncnn4)nnc3cc2c1=O [Example 18, 3-(2-Methoxyethyl)-8-[(2R)-1-(2H-tetrazol-2-yl)propan-2-yl]-3,8-dihydrobenzo[1,2-d: 4,5-d′]bis[1,2,3]triazine-4,9-dione] | % increase in the amplitude of the field EPSP in the CA1 region of rat hippocampal slice (AMPA receptor [1]; @ 10 μM): 35% @ 10 μM; % increase in the amplitude of the field EPSP in rat dentate gyrus (AMPA receptor [2]; @ 5 mpk i.p.): 34%^3 |
| – | C[C@H](Cn1ncnn1)n1nnc2cc3c(=O)n(CC#N)nnc3cc2c1=O [Example 22, {4,9-Dioxo-8-[(2R)-1-(2H-tetrazol-2-yl)propan-2-yl]-8,9-dihydrobenzo[1,2-d:4,5-d′]bis[1,2,3]triazin-3(4H)-yl}acetonitrile] | % increase in the amplitude of the field EPSP in the CA1 region of rat hippocampal slice (AMPA receptor [1]; @ 3 μM): 24% @ 3 μM; % increase in the amplitude of the field EPSP in rat dentate gyrus (AMPA receptor [2]; @ 5 mpk i.p.): 42%^3; In vitro Patch Clamp Electrophysiology EC2x (concentration at which the glutamate induced current is increased by 100%) (AMPA receptor [3]): 0.24 μM |
| – | C[C@H](Cn1ncnn1)n1cnc2cc3c(=O)n(C4CC4)nnc3cc2c1=O [Example 53, 3-Cyclopropyl-8-[(2R)-1-(2H-tetrazol-2-yl)propan-2-yl]-3,8-dihydro[1,2,3]triazino[4,5-g]quinazoline-4,9-dione] | % increase in the amplitude of the field EPSP in the CA1 region of rat hippocampal slice (AMPA receptor [1]; @ 10 μM): 55% @ 10 μM; % increase in the amplitude of the field EPSP in rat dentate gyrus (AMPA receptor [2]; @ 5 mpk i.p.): 33%^3; In vitro Patch Clamp Electrophysiology EC2x (concentration at which the glutamate induced current is increased by 100%) (AMPA receptor [3]): 0.60 μM |
| – | C[C@H](Cn1ncnn1)n1nnc2cc3c(=O)n([C@H](C)Cn4ncnn4)nnc3cc2c1=O [Example 80, 3,8-Bis[(2R)-1-(2H-tetrazol-2-yl)propan-2-yl]-3,8-dihydrobenzo[1,2-d:4,5-d′]bis[1,2,3]triazine-4,9-dione] | % increase in the amplitude of the field EPSP in the CA1 region of rat hippocampal slice (AMPA receptor [1]; @ 3 μM): 65% @ 3 μM; % increase in the amplitude of the field EPSP in rat dentate gyrus (AMPA receptor [2]; @ 1 mpk i.p.): 59%^4; In vitro Patch Clamp Electrophysiology EC2x (concentration at which the glutamate induced current is increased by 100%) (AMPA receptor [3]): 0.016 μM |

Source: patent publication US20100267728A1, “3-SUBSTITUTED-1,2,3-TRIAZIN-4-ONE'S AND 3 SUBSTITUTED 1,3-PYRIMIDINONE'S FOR ENHANCING GLU[…] RESPONSES” (CORTEX PHARMACEUTICALS, INC., priority 2007, published 2010)
